The values below come from patent publication US9393221B2, “Methods and compounds for reducing intracellular lipid storage” (THE GENERAL HOSPITAL CORPORATION, priority 2011, dated 2016).

Structures can show the parent of a compound that is named as a salt.

One experiment relates to ATGL-KO iPSCs. As to the kind of experiment: High throughput iPSC chemical screening, Oil Red O (ORO) lipid accumulation. As to Z-score: test concentration or dose not given here. It is filed as cell-based, mouse. The settings on record: glycolytic switch compounds.
`O=c1c2ccccc2[se]n1-c1ccccc1` [Ebselen]: the “Rank in normalized ORO score from screen” value is 52.

The experiment is the same for the next values; noted with them: normalized ORO level vs DMSO-treated cells; compound present during 7 days differentiation, 96-well; negative = decrease in lipid accumulation.
Take `CC(=O)OCC(=O)[C@@]1(OC(C)=O)[C@@H](C)C[C@H]2[C@@H]3C[C@H](F)C4=CC(=O)C=C[C@]4(C)[C@@]3(F)[C@@H](O)C[C@@]21C` [Diflorasone Diacetate]: the Z-score worked out at 0.6842.

On to `O=C(O)c1cc(-c2ccc(F)cc2F)ccc1O` [Diflunisal], for which the Z-score is given as −0.3972.

`C[C@]12CC[C@H](O)C[C@H]1CC[C@@H]1[C@@H]2CC[C@]2(C)[C@@H](C3=CC(=O)OC3)CC[C@]12O` [Digitoxigenin] registered a Z-score of −0.9264.

With `C[C@]12CC[C@H](O)C[C@H]1CC[C@@H]1[C@@H]2C[C@@H](O)[C@]2(C)[C@@H](C3=CC(=O)OC3)CC[C@]12O` [Digoxigenin], the Z-score was −1.0521.

The compound `C[C@H]1O[C@@H](O[C@H]2[C@@H](O)C[C@H](O[C@H]3[C@@H](O)C[C@H](O[C@H]4CC[C@@]5(C)[C@H](CC[C@@H]6[C@@H]5C[C@@H](O)[C@]5(C)[C@@H](C7=CC(=O)OC7)CC[C@]65O)C4)O[C@@H]3C)O[C@@H]2C)C[C@H](O)[C@@H]1O` [Digoxin] registered a Z-score of −0.815.

The compound `CC(C)[C@@]1(NC(=O)[C@@H]2C[C@@H]3c4cccc5[nH]cc(c45)C[C@H]3N(C)C2)O[C@@]2(O)[C@@H]3CCCN3C(=O)[C@H](Cc3ccccc3)N2C1=O` [Dihydroergocristine mesylate] returned a Z-score of 0.9157.

`CN[C@@H]1[C@H](O[C@H]2[C@H](O[C@H]3[C@H](O)[C@@H](O)[C@H](NC(=N)N)[C@@H](O)[C@@H]3NC(=N)N)O[C@@H](C)[C@]2(O)CO)O[C@@H](CO)[C@H](O)[C@H]1O` [Dihydrostreptomycin sulfate] had a Z-score of 1.253.

As to `COc1cc(C(=O)OCCCN2CCCN(CCCOC(=O)c3cc(OC)c(OC)c(OC)c3)CC2)cc(OC)c1OC` [Dilazep dihydrochloride], the Z-score is recorded as 0.1967.

`CN(C(=O)C(Cl)Cl)c1ccc(OC(=O)c2ccco2)cc1` [Diloxanide furoate] gave a Z-score of −0.9785.

Take `COc1ccc([C@@H]2Sc3ccccc3N(CCN(C)C)C(=O)[C@@H]2OC(C)=O)cc1` [Diltiazem hydrochloride]: the Z-score is −0.974.

`CN(C)CCCSC(=N)N` [Dimaprit dihydrochloride] gave a Z-score of −1.2574.

Consider `CN(C)CCOC(c1ccccc1)c1ccccc1.Cn1c(=O)c2[nH]c(Cl)nc2n(C)c1=O` [Dimenhydrinate], for which the Z-score was −0.7776.

`CC1(C)OC(=O)NC1=O` [Dimethadione] came in with a Z-score of −0.9493.

As for `CCCCc1cc2ccccc2c(OCCN(C)C)n1` [Dimethisoquin hydrochloride], the Z-score is 0.4631.

Compound `CCCCC[C@H](O)/C=C/[C@@H]1[C@@H](C/C=C\CCCC(=O)O)[C@@H](O)C[C@H]1O` [Dinoprost trometamol] gave a Z-score of 0.7612.

Compound `COc1ccc(C(=O)c2ccccc2O)c(O)c1` [Dioxybenzone] showed a Z-score of −1.6584.

`O=C(Nc1ccccc1)OCC(CN1CCCCC1)OC(=O)Nc1ccccc1` (stereo not drawn) [Diperodon hydrochloride] gave a Z-score of −0.6048.

`C[N+]1(C)CCC(=C(c2ccccc2)c2ccccc2)CC1` [Diphemanil methylsulfate]: the Z-score turned out to be 0.6045.

The compound `CN(C)CCOC(c1ccccc1)c1ccccc1` [Diphenhydramine hydrochloride] had a Z-score of 1.308.

In turn, `OC(CCCN1CCCCC1)(c1ccccc1)c1ccccc1` [Diphenidol hydrochloride] yielded a Z-score of −0.7294.

The compound `CN1CCC(OC(c2ccccc2)c2ccccc2)CC1` [Diphenylpyraline hydrochloride] showed a Z-score of 0.246.

For `CNCC(O)c1ccc(OC(=O)C(C)(C)C)c(OC(=O)C(C)(C)C)c1` (stereo not drawn) [Dipivefrin hydrochloride], the Z-score was 1.363.

For `Cn1c(=O)c2c(ncn2CC(O)CO)n(C)c1=O` (stereo not drawn) [Diprophylline], the Z-score is on record as −0.3767.

The compound `OCCN(CCO)c1nc(N2CCCCC2)c2nc(N(CCO)CCO)nc(N3CCCCC3)c2n1` [Dipyridamole] displayed a Z-score of 0.4282.

As to `Cc1c(N(C)CS(=O)(=O)[O-])c(=O)n(-c2ccccc2)n1C.[Na+]` [Dipyrone], the Z-score is recorded as 1.061.

Compound `CC(C)N(CCC(C(N)=O)(c1ccccc1)c1ccccn1)C(C)C` (stereo not drawn) [Disopyramide] gave a Z-score of −1.1535.

For `CCN(CC)C(=S)SSC(=S)N(CC)CC` [Disulfiram], the Z-score was 15.5036.

The compound `C[C@]12N[C@H](Cc3ccccc31)c1ccccc12` [Dizocilpine maleate] returned a Z-score of −1.1505.

Take `CC(CCc1ccc(O)cc1)NCCc1ccc(O)c(O)c1` (stereo not drawn) [Dobutamine hydrochloride]: the Z-score is −0.4732.

`CCN[C@H]1C[C@H](C)S(=O)(=O)c2sc(S(N)(=O)=O)cc21` [Dorzolamide hydrochloride] registered a Z-score of 1.587.

With `CN(C)CC/C=C1\c2ccccc2CSc2ccccc21` [Dosulepin hydrochloride], the Z-score came out at 0.00689.

`COc1cc2nc(N3CCN(C(=O)C4COc5ccccc5O4)CC3)nc(N)c2cc1OC` (stereo not drawn) [Doxazosin mesylate] had a Z-score of −1.0121.

Take `CN(C)CCC=C1c2ccccc2COc2ccccc21` [Doxepin hydrochloride]: the Z-score is on record as −1.0091.

With `COc1cccc2c1C(=O)c1c(O)c3c(c(O)c1C2=O)C[C@@](O)(C(=O)CO)C[C@@H]3O[C@H]1C[C@H](N)[C@H](O)[C@H](C)O1` [Doxorubicin hydrochloride], the Z-score is 32.6438.

The compound `C[C@H]1c2cccc(O)c2C(=O)C2=C(O)[C@]3(O)C(=O)C(C(N)=O)=C(O)[C@@H](N(C)C)[C@@H]3[C@@H](O)[C@@H]21` [Doxycycline hydrochloride] returned a Z-score of 2.356.

Compound `CN(C)CCOC(C)(c1ccccc1)c1ccccn1` (stereo not drawn) [Doxylamine succinate] showed a Z-score of 0.07172.

Consider `CCN(CC)CCOC(=O)C(c1ccccc1)C1CCCCC1` (stereo not drawn) [Drofenine hydrochloride], for which the Z-score was −0.0455.

Compound `O=C(CCCN1CC=C(n2c(=O)[nH]c3ccccc32)CC1)c1ccc(F)cc1` [Droperidol] displayed a Z-score of −0.5996.

Turning to `COc1c2c(nc3ccccc13)OC(C(C)(O)CO)C2` (stereo not drawn) [Dubinidine], the Z-score is reported as 0.2385.

`CCCCOc1ccc(C(=O)CCN2CCCCC2)cc1` [Dyclonine hydrochloride] had a Z-score of −1.4276.

Regarding `CC(=O)[C@H]1CC[C@H]2[C@@H]3C=CC4=CC(=O)CC[C@@]4(C)[C@@H]3CC[C@]12C` [Dydrogesterone], the Z-score is −0.7044.

Consider `O=c1c2ccccc2[se]n1-c1ccccc1` [Ebselen], for which the Z-score was −1.5273.

The compound `Clc1ccc(COC(Cn2ccnc2)c2ccc(Cl)cc2Cl)cc1` (stereo not drawn) [Econazole nitrate] gave a Z-score of −0.8488.

`CC[N+](C)(C)c1cccc(O)c1` [Edrophonium chloride]: the Z-score stood at 0.4533.

On to `Cc1c2ccncc2c(C)c2c1[nH]c1ccccc12` [Ellipticine], for which the Z-score worked out at 36.711.

Consider `CC[C@H]1CN2CCc3cc(OC)c(OC)cc3[C@@H]2C[C@@H]1C[C@H]1NCCc2cc(OC)c(OC)cc21` [Emetine dihydrochloride], for which the Z-score came to 32.7653.

For the compound `CCOC(=O)[C@H](CCc1ccccc1)N[C@@H](C)C(=O)N1CCC[C@H]1C(=O)O` [Enalapril maleate], the Z-score is reported as 0.1645.
